We go through one molecule from patent US8519154B2, “Method for treatment of bronchial asthma” (Council of Scientific & Industrial Research, priority 2011, dated 2013).

One series has as its system PDE-4. Description: Phosphodiesterase 4 assay, [3H]cAMP SPA enzyme assay, enzyme preparation from rat heart. It is filed as biochemical. As for the experimental part:
For phosphodiesterase (PDE-4) assay, enzyme preparations were performed from rat heart (Ko et al 2004, Biochemical Pharmacology 68:2087-2094). Heart was excised from anesthetized rat and transfer into normal saline solution. Heart weighing 687 mg was taken and homogenized in 2.5 volumes of homogenization buffer containing 20 mM Tris-Cl, 50 mM NaCl, 2 mM EDTA, 0.1 mM PMSF, […], protease inhibitors 1 μg/μl. The homogenate was centrifuged at 500×g for 5 minute at 4° C. Then sup was taken for further centrifuged at 40,000×g for 30 minute (ultra centrifugation). After centrifugation supernatant was collected for phosphodiesterase assay. Protein concentration was estimated and for each assay, 2.5 μg protein (PDE enzyme preparation) was used. All compounds tested for PDE 4 activity were dissolved in DMSO.
Phosphodiesterase 4 assay: Phosphodiesterase 4 assay was conducted with [^3H] cAMP SPA enzyme assay (GE Amersham, UK) using 2.5 μg enzyme preparation for each well. Into each well 60 μl water, 10 μl assay buffer supplied with the kit, 10 μl compound (inhibitor), 10 μl PDE enzyme or homogenizing buffer (blank) and […] radiolabel led cAMP ([^3H]cAMP, GE Amersham, UK) were added. To check activity of the enzyme without inhibitor (compound) 10 μl DMSO was added in place of inhibitor to a separate well. The reaction mixtures were incubated for […] at 30° C. The reaction was stopped by adding 50 μl SPA bead supplied with the kit. It was then mixed well and allowed to stand at room temperature for 20 min. Breakdown of cAMP in each tube was monitored by β counter. The reading in each tube was obtained in counts per minute (CPM). The reading of the blank tube (without enzyme) was subtracted from each tube to normalize the counts. The enzyme activity was calculated by considering the CPM reading without any inhibitor (compound) as 100.

Series [1] relates to BALB/c mice sensitized and challenged with ovalbumin (OVA). Description: Airway responsiveness to methacholine in mouse model of asthma. It is filed as in vivo. As for the experimental part:
Present invention describes the efficacy of compound I in vivo mouse model of asthma. BALB/c mice were sensitized and challenged with ovalbumin (OVA) as shown in scheme 2 to develop asthmatic features such as airway hyperreactivity (AHR) to methacholine (MCh).
Mice were sensitized with 0.2 ml PBS containing 50 μg ovalbumin (OVA) (Sigma, USA) and 4 mg aluminum hydroxide in saline intraperitonially (i.p.) on days 0, 7 and 14 as shown in scheme 2. Sham group mice were sensitized with only alum dissolved in PBS. From day 21 to 30, mice were exposed to aerosol of OVA (3%) inhalation 25 minutes daily in a Plexiglas chamber (20×20×10 cm^3). The aerosol was generated by a nebulizer (OMRON CX, model) with an airflow rate of 9 L/minute. Sham group mice were challenged with PBS alone. […]
Airway responsiveness was measured by barometric plethysmography using whole-body plethysmography (WBP; Buxco, Troy, N.Y.) 12 hours after last saline or ovalbumin challenge. […] Enhanced pause (Penh) to methacholine as measured using barometric plethysmography is a valid indicator of bronchoconstriction in mice and can be used to measure AHR. […] Readings were taken and averaged for 5 minutes from the starting time of nebulisation. Airway responsiveness to MCh was evaluated by the concentration of MCh required to increase the Pen H to twice the baseline value (MCh PC200).

Series [2] in a line: Determination of pharmacokinetics in mice. It is filed as in vivo, swiss mice. Here is the method: Treatment of animal: Healthy swiss mice of both the sexes (25-30) were used. The animals were kept (3/cage) under controlled conditions (temp 26±2° C.; relative humidity 50±5%; 12 h light/dark cycle) and maintained on pelleted rodent diet […]. Ashirwad Industries Ltd. Chandigarh, India). Water was provided ad libitum. Compound I was solubilised in 2% gum acacia by trituration and diluted with normal saline to obtained desired concentration. The compound was administered orally (20 mg/kg BW) or via intravenous route (10 mg/kg bw).
Sampling time: Blood samples were collected at 0, 5, 15 and 30 min, and 1, 2, 4, 6, 8, 16 and 24 hrs post-administration after oral/iv route in pre-labeled heparinised tubes and centrifuged (3500 rpm×10 minutes) to obtain the plasma. A total of 6 animals were used per time point.
(i) Aliquots of plasma (250 ul) were mixed with ethyl acetate (3 ml), vortexed for two minutes (2500 rpm) and centrifuged at 5000 rpm for 10 min. The organic layer was collected and evaporated to dryness using solvent evaporator (Model: SPD 111V, Thermo Electron Corporation, MA). The dried samples were reconstituted in mobile phase for HPLC analysis.
(2) Calibration standards were prepared from aliquots of plasma collected from untreated animals which were spiked with molecule I (0.25 μg-10 μg/ml). […] The extraction efficiency of the molecule from plasma matrix was 90-93%.
HPLC determinations HPLC determinations were done on Thermofinningan chromatograph (Model: SpectraSystem SCM 1000 equipped with quaternary pump P-4000; autosampler AS 3000; UV 6000 LP): diode array detector). Molecule D8 was run under the following conditions:
Column: RP-8 (5 um); Mobile Phase: Acetonitrile:Water (51:49); Wavelength: 272 nm Flow Rate: 1 ml/min; Retention time: 8.035 min; The lower limit of detection (LOD): 3.5 ng/ml; limit of quantitation (LOQ): 10 ng/ml.
Bioavailability indices. A concentration-time curve for Molecule D8 was established and pharmacokinetic parameters (Cmax, Tmax, AUC0-24, Clerance (Cl) and Volume of Distribution (vd) were determined by using a software (PK Solutions version 2.0; Summit Research Services, USA).
Absolute bioavailability was determined using the following formula: AUCoral×doseiv/AUCv×Doseoral.

Another series can be described thus: Solubility in water. It is filed as physicochemical.

Some results are limits rather than exact numbers.

As for `COc1cc(C=O)cc2c1[nH]c1ccccc12` [Compound I, 1-methoxy-3-formyl-9H carbazole], the “% of Inhibition” value is listed as 1.4% in the series on PDE-4 (0.1 μg/ml), 34.7% in the series with PDE-4 (1 μg/ml) and 73.1% with PDE-4 (10 μg/ml). For the same molecule, the figures for the IC50 on PDE-4 (compound of natural origin (extraction from plants)) and against PDE-4 (synthetically prepared compound (chemical origin)) were 20 µM and 0.05 µM, respectively. Further, the “extent of inhibition of PDE 4 activity” value in the series on PDE-4 (compound of natural origin, compared with rolipram) is “comparable to known PDE 4 inhibitor, rolipram”. In addition, in series [1] (0.1, 1 and 10 mg/kg orally twice per day), the “MChPC200 (airway hyper-responsiveness)” value is given as “significantly attenuated the decrease in MChPC200”. Further, in series [1] (orally twice per day), the “dose with maximum effect on MChPC200” value came to 10 mg/kg. Moreover, the “amounts detected in urine” value in series [2] (after 24 hrs) is “negligible amounts”. In series [2] (mouse, in vivo), the plasma clearance rate entry was “good plasma clearance rate”. The volume of distribution result in series [2] (mouse, in vivo) was “volume of distribution is high”. In addition, the “intact drug stays in the circulation” value in series [2] (oral administration) is no more than 12 h. Moreover, the solubility in water entry in “Solubility in water” is given as “insoluble in water”.
